Data on 22 compounds can be found in US20220282217A1, “COMPOSITIONS AND METHODS FOR PREPARING T CELL COMPOSITIONS AND USES THEREOF” (priority 2019, published 2022).

By IC50 is commonly meant the concentration at which inhibition is half-maximal.

Where a SMILES comes first, the peptide text is derived from it.

The target of one experiment is HLA-A24.02. Put plainly: Class I MHC peptide binding affinity (displacement of radiolabeled reference peptide). The arrangement: species or system human. To be noted: allele A24.02; read-out: Observed Affinity (IC50; (nM)).
Experiment [1] addresses HLA-A02.01 (Homo sapiens, UniProt P04439, D140Y/D185E/D98H/E176V/E277Q/G131W/G231S/I119V/I121R/I166T/I218V/L300P/L318F/N151K/N90K/P208A/P217A/Q86G/Q94H/R138H/R169H/T345S). The experiment is described as above. To be noted: for IC50: allele A02.01, read-out: Observed Affinity (IC50, (nM)); for Kd: EGFR T790M peptides, HLA allele A02.01, read-out: Affinity. The essentials: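 Peptides compete against a prebound radiolabeled reference on MHCI over 2 days at several concentrations.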

Experiment [2] deals with T1, HLA-A02.01 (Homo sapiens, UniProt P04439, D140Y/D185E/D98H/E176V/E277Q/G131W/G231S/I119V/I121R/I166T/I218V/N151K/N90K/P208A/P217A/Q86G/Q94H/R138H/R169H).
T1 construct: made in house; host or cells: E. coli
Put plainly: Class I MHC peptide binding stability (pMHC-I dissociation, 125I-labeled light chain). To be noted: for Stability (T1/2 (h)): allele A02.01.

For the next experiment, the target named is HLA-A03.01 (Homo sapiens, UniProt P04439). The experiment in a line: Class I MHC peptide binding affinity (displacement of radiolabeled reference peptide). The note with it: allele A03.01; read-out: Observed Affinity (IC50; (nM)).

For the compound `CC(C)C[C@H](NC(=O)[C@H](CS)NC(=O)[C@H](CO)NC(=O)[C@H](Cc1ccccc1)NC(=O)[C@H](CC(C)C)NC(=O)[C@H](CCCCN)NC(=O)[C@H](Cc1ccccc1)NC(=O)CN)C(=O)N[C@@H](CO)C(=O)N[C@@H](Cc1ccccc1)C(=O)O` (H-GFKLFSCLSF-OH; N-terminus and C-terminus assumed), the IC50 at HLA-A24.02 turned out to be 643 nM. `CSCC[C@H](NC(=O)[C@@H](N)CCCNC(=N)N)C(=O)N1CCC[C@H]1C(=O)N1CCC[C@H]1C(=O)N[C@@H](CS)C(=O)N[C@@H](CC(C)C)C(=O)N[C@@H](C)C(=O)N[C@@H](CC(N)=O)C(=O)N[C@@H](Cc1ccccc1)C(=O)O` (H-RMPPCLANF-OH; N-terminus and C-terminus assumed): the IC50 at HLA-A24.02 is 8.7 nM. In the case of `CC[C@H](C)[C@H](NC(=O)[C@@H](NC(=O)[C@H](CC(C)C)NC(=O)[C@@H](NC(=O)[C@@H]1CCCN1C(=O)[C@H](CCCNC(=N)N)NC(=O)[C@H](CCCNC(=N)N)NC(=O)[C@H](CC(N)=O)NC(=O)[C@H](CCSC)NC(=O)[C@@H](N)CO)[C@@H](C)CC)[C@@H](C)O)C(=O)O`, the IC50 at HLA-A02.01 [1] worked out at 1200 nM; at HLA-A24.02, 16300 nM. On HLA-A02.01 [2], the “Stability (T1/2 (h))” value is reported as 0.3 h.

In the case of `CC(C)C[C@H](NC(=O)[C@@H](NC(=O)[C@H](CO)NC(=O)[C@H](CO)NC(=O)[C@H](CC(C)C)NC(=O)[C@@H](N)CCCNC(=N)N)C(C)C)C(=O)N[C@@H](CCC(N)=O)C(=O)N[C@@H](CCCNC(=N)N)C(=O)N[C@@H](Cc1ccccc1)C(=O)O` (H-RLSSVLQRF-OH; N-terminus and C-terminus assumed), on HLA-A24.02, the IC50 amounted to 28.2 nM.

In the case of `CC[C@H](C)[C@H](NC(=O)[C@H](Cc1ccc(O)cc1)NC(=O)[C@H](CC(C)C)NC(=O)[C@@H](N)CC(C)C)C(=O)N[C@H](C(=O)N[C@@H](C)C(=O)N[C@@H](Cc1ccccc1)C(=O)N[C@@H](Cc1ccccc1)C(=O)N[C@@H](CC(C)C)C(=O)N[C@@H](CC(C)C)C(=O)O)[C@@H](C)O` (H-LLYITAFFLL-OH; N-terminus and C-terminus assumed), the results for the IC50 on HLA-A02.01 [1] and at HLA-A24.02 were 323 nM and 60.1 nM, respectively. On to `CC[C@H](C)[C@H](N)C(=O)N[C@@H](CCSC)C(=O)N[C@@H](CCC(N)=O)C(=O)N[C@@H](CC(C)C)C(=O)N[C@@H](CCSC)C(=O)N1CCC[C@H]1C(=O)N[C@@H](Cc1ccccc1)C(=O)NCC(=O)N[C@@H](CS)C(=O)N[C@@H](CC(C)C)C(=O)O`, for which, at HLA-A02.01 [1], the Kd is 653 nM and the concentration for half-maximal inhibition (IC50) turned out to be 837 nM. Also, the IC50 at HLA-A24.02 worked out at 18100 nM. Also, the “Stability (half-life (hr.))” value at HLA-A02.01 [2] (EGFR T790M peptides, HLA allele A02.01) was 30.94 min. In addition, the “Stability (T1/2 (h))” value on HLA-A02.01 [2] was determined as 0.5 h.

With `CC[C@H](C)[C@H](NC(=O)[C@H](Cc1ccc(O)cc1)NC(=O)[C@H](CC(C)C)NC(=O)[C@H](CO)NC(=O)[C@H](CC(N)=O)NC(=O)[C@H](CS)NC(=O)[C@H](CCC(=O)O)NC(=O)[C@H](Cc1c[nH]cn1)NC(=O)[C@H](CC(C)C)NC(=O)[C@@H](N)C(C)C)C(=O)O` (H-VLHECNSLYI-OH; N-terminus and C-terminus assumed), the IC50 on HLA-A02.01 [1] is 10 nM; at HLA-A03.01 it was 10500 nM. Besides, the “Stability (T1/2 (h))” value at HLA-A02.01 [2] is 5.1 h. `CC[C@H](C)[C@H](NC(=O)[C@H](Cc1ccc(O)cc1)NC(=O)[C@@H](N)CC(C)C)C(=O)N[C@H](C(=O)N[C@@H](C)C(=O)N[C@@H](Cc1ccccc1)C(=O)N[C@@H](Cc1ccccc1)C(=O)N[C@@H](CC(C)C)C(=O)N[C@@H](CC(C)C)C(=O)O)[C@@H](C)O` (H-LYITAFFLL-OH; N-terminus and C-terminus assumed): on HLA-A24.02, the IC50 turned out to be 0.1 nM.

For `CC[C@H](C)[C@H](NC(=O)[C@H](CCCCN)NC(=O)[C@H](CO)NC(=O)[C@H](CCC(=O)O)NC(=O)[C@H](C)NC(=O)[C@H](CCCCN)NC(=O)[C@H](CC(C)C)NC(=O)[C@H](Cc1ccccc1)NC(=O)[C@@H](N)CCSC)C(=O)O` (H-MFLKAESKI-OH; N-terminus and C-terminus assumed), at HLA-A24.02, the IC50 is 332 nM. The same measure, in the same setting: the figure for `CC[C@H](C)[C@H](NC(=O)[C@H](Cc1ccc(O)cc1)NC(=O)[C@H](CS)NC(=O)[C@H](Cc1ccccc1)NC(=O)[C@@H](N)Cc1ccccc1)C(=O)N[C@@H](CC(C)C)C(=O)N[C@@H](CC(N)=O)C(=O)N[C@H](C(=O)N[C@@H](CCSC)C(=O)N[C@@H](Cc1ccccc1)C(=O)O)[C@@H](C)O` (H-FFCYILNTMF-OH; N-terminus and C-terminus assumed) is 73.4 nM; for `CC[C@H](C)[C@H](NC(=O)[C@H](Cc1ccc(O)cc1)NC(=O)[C@@H](N)CC(C)C)C(=O)N[C@H](C(=O)N[C@@H](C)C(=O)N[C@@H](Cc1ccccc1)C(=O)N[C@@H](Cc1ccccc1)C(=O)N[C@@H](CC(C)C)C(=O)N[C@@H](CC(C)C)C(=O)N[C@@H](CC(=O)O)C(=O)O)[C@@H](C)O` (H-LYITAFFLLD-OH; N-terminus and C-terminus assumed) it is 0.4 nM. As for `CSCC[C@H](NC(=O)[C@H](CC(C)C)NC(=O)[C@H](CO)NC(=O)[C@H](CC(C)C)NC(=O)[C@@H]1CCCN1C(=O)[C@H](CCC(N)=O)NC(=O)[C@H](CCSC)NC(=O)[C@H](CCC(N)=O)NC(=O)[C@@H](N)Cc1ccccc1)C(=O)O`, the IC50 was 553 nM at HLA-A02.01 [1] and 14600 nM on HLA-A24.02. Besides, the “Stability (T1/2 (h))” value at HLA-A02.01 [2] worked out at 0.3 h. As for `CC(C)C[C@H](NC(=O)[C@@H](NC(=O)[C@H](CO)NC(=O)[C@@H]1CCCN1C(=O)[C@H](CC(C)C)NC(=O)[C@H](Cc1ccccc1)NC(=O)[C@@H](NC(=O)[C@H](Cc1ccc(O)cc1)NC(=O)[C@@H](NC(=O)CN)C(C)C)[C@@H](C)O)[C@@H](C)O)C(=O)O` (H-GVYTFLPSTL-OH; N-terminus and C-terminus assumed), the values for the IC50 at HLA-A02.01 [1] and on HLA-A24.02 were 1200 nM and 7700 nM, respectively. In addition, at HLA-A02.01 [2], the “Stability (T1/2 (h))” value is on record as 0.4 h. For the compound `CC(C)C[C@H](NC(=O)[C@H](CC(C)C)NC(=O)[C@H](CCC(=O)O)NC(=O)[C@@H]1CCCN1C(=O)[C@H](Cc1ccccc1)NC(=O)[C@@H](N)CCCCN)C(=O)N[C@@H](CS)C(=O)N[C@H](C(=O)N[C@@H](Cc1c[nH]c2ccccc12)C(=O)O)C(C)C` (H-KFPELLCVW-OH; N-terminus and C-terminus assumed), the IC50 at HLA-A24.02 is 13.7 nM. On to `CC[C@H](C)[C@H](NC(=O)[C@H](CC(C)C)NC(=O)[C@H](CCC(N)=O)NC(=O)[C@@H](N)C(C)C)C(=O)N[C@@H](CCSC)C(=O)N[C@@H](CCC(N)=O)C(=O)N[C@@H](CC(C)C)C(=O)N[C@@H](CCSC)C(=O)N1CCC[C@H]1C(=O)N[C@@H](Cc1ccccc1)C(=O)O`, for which, on HLA-A02.01 [1], the Kd was found to be 4940 nM. Moreover, the values for the IC50 at HLA-A02.01 [1] and on HLA-A24.02 were 5490 nM and 4560 nM, respectively. As to `CC[C@H](C)[C@H](NC(=O)[C@@H]1CCCN1C(=O)[C@H](Cc1ccccc1)NC(=O)[C@H](Cc1ccccc1)NC(=O)[C@H](CCCNC(=N)N)NC(=O)[C@H](C)NC(=O)[C@H](CC(C)C)NC(=O)[C@H](CCC(N)=O)NC(=O)[C@@H](N)[C@@H](C)O)C(=O)O`, the IC50 on HLA-A02.01 [1] stood at 19 nM; at HLA-A24.02 it was 52 nM. For the compound `CC[C@H](C)[C@H](NC(=O)[C@@H]1CCCN1C(=O)[C@H](CCCNC(=N)N)NC(=O)[C@H](Cc1c[nH]c2ccccc12)NC(=O)[C@H](CC(N)=O)NC(=O)[C@H](CCSC)NC(=O)CNC(=O)CNC(=O)[C@H](CCSC)NC(=O)[C@@H](N)CS)C(=O)O`, the IC50 was found to be 346 nM at HLA-A02.01 [1] and 4450 nM at HLA-A24.02. In addition, at HLA-A02.01 [2], the “Stability (T1/2 (h))” value turned out to be 0.4 h. Consider `CC[C@H](C)[C@H](NC(=O)[C@H](Cc1c[nH]c2ccccc12)NC(=O)[C@H](CC(C)C)NC(=O)[C@@H]1CCCN1C(=O)[C@H](CO)NC(=O)[C@H](CCCNC(=N)N)NC(=O)[C@H](CC(C)C)NC(=O)[C@@H](N)CCCCN)C(=O)N[C@@H](Cc1ccccc1)C(=O)O` (H-KLRSPLWIF-OH; N-terminus and C-terminus assumed), for which the IC50 on HLA-A24.02 was determined as 828 nM. As to `CSCC[C@H](NC(=O)[C@@H](N)C(C)C)C(=O)N[C@@H](C)C(=O)NCC(=O)N[C@@H](CC(C)C)C(=O)NCC(=O)N[C@@H](CO)C(=O)N1CCC[C@H]1C(=O)N[C@@H](Cc1ccc(O)cc1)C(=O)N[C@H](C(=O)O)C(C)C` (H-VMAGLGSPYV-OH; N-terminus and C-terminus assumed), the IC50 turned out to be 102 nM at HLA-A02.01 [1] and 11200 nM on HLA-A03.01. Besides, the “Stability (T1/2 (h))” value at HLA-A02.01 [2] turned out to be 2.9 h. As to `CSCC[C@H](NC(=O)[C@H](CCCNC(=N)N)NC(=O)[C@@H](N)CCCNC(=N)N)C(=O)N1CCC[C@H]1C(=O)N1CCC[C@H]1C(=O)N[C@@H](CS)C(=O)N[C@@H](CC(C)C)C(=O)N[C@@H](C)C(=O)N[C@@H](CC(N)=O)C(=O)N[C@@H](Cc1ccccc1)C(=O)O` (H-RRMPPCLANF-OH; N-terminus and C-terminus assumed), the half-maximal inhibitory concentration (IC50) at HLA-A24.02 stood at 141 nM. `CSCC[C@H](NC(=O)[C@H](CCC(=O)O)NC(=O)[C@H](CC(C)C)NC(=O)[C@H](CC(C)C)NC(=O)[C@H](CC(C)C)NC(=O)CNC(=O)[C@H](Cc1ccc(O)cc1)NC(=O)[C@@H](N)CC(C)C)C(=O)N[C@@H](CC(C)C)C(=O)O` (H-LYGLLLEML-OH; N-terminus and C-terminus assumed): on HLA-A24.02, the half-inhibitory concentration (IC50) came out at 0.8 nM. On the same count and under the same terms, the figure for `CC[C@H](C)[C@H](NC(=O)[C@H](Cc1ccc(O)cc1)NC(=O)[C@@H](N)CC(C)C)C(=O)N[C@H](C(=O)N[C@@H](C)C(=O)N[C@@H](Cc1ccccc1)C(=O)N[C@@H](Cc1ccccc1)C(=O)N[C@@H](Cc1ccccc1)C(=O)N[C@@H](CS)C(=O)N[C@@H](Cc1c[nH]c2ccccc12)C(=O)O)[C@@H](C)O` (H-LYITAFFFCW-OH; N-terminus and C-terminus assumed) is 45.3 nM.
